What was measured:
[1] = molecular target: Prostaglandin G/H synthase 1 (Homo sapiens, UniProt P23219); test: biochemical; format: tissue-based, Platelet;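 also: inhibition of COX-1 enzyme activity, with arachidonic acid supplied as substrate; in other assays of this panel Not Active means under 50% inhibition at 10 µM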
Estrogen receptor = molecular target: T1, Estrogen receptor (Homo sapiens, UniProt P03372); details: sf9; also: in other assays of this panel Not Active means under 50% inhibition at 10 µM
T1 sequence (P03372 whole entry): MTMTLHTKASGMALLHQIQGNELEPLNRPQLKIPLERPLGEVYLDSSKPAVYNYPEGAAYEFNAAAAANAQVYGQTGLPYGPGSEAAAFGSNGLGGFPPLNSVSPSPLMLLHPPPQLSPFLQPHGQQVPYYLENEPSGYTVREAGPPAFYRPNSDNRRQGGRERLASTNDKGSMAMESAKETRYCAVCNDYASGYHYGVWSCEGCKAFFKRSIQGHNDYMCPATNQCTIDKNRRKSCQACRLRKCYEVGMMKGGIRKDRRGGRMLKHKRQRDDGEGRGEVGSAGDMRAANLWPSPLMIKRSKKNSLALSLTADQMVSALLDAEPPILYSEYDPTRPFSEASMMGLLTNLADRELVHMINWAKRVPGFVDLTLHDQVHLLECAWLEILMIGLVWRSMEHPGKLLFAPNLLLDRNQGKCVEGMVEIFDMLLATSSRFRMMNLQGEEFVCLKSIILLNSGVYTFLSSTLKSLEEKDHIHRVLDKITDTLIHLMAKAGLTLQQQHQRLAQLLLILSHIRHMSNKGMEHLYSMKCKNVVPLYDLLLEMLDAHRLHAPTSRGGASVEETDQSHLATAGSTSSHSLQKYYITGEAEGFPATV

[2] = DRUGMATRIX: Purinergic P2X radioligand binding (ligand: [3H] alpha, beta-Methylene-ATP); format: cell membranes, Oryctolagus cuniculus, New Zealand albino, Urinary bladder, Membrane; details: Not Active = under 50% inhibition at 10 µM
B2 bradykinin receptor = molecular target: T2, B2 bradykinin receptor (Homo sapiens, UniProt P30411); format: cell membranes, Membrane; details: chem-1; also: in other assays of this panel Not Active means under 50% inhibition at 10 µM
T2 sequence (P30411 whole entry): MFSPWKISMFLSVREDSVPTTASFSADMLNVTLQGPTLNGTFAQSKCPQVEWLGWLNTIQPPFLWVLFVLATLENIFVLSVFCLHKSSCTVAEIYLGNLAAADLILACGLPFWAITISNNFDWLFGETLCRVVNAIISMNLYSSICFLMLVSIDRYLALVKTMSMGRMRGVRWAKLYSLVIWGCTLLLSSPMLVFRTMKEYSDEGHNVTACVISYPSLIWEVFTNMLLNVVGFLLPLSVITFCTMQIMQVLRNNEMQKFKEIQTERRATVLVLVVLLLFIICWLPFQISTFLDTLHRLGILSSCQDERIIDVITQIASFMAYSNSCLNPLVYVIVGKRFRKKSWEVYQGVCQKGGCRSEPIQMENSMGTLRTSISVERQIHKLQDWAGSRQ

[3] = molecular target: Sodium-dependent noradrenaline transporter (Homo sapiens, UniProt P23975); test: DRUGMATRIX: Norepinephrine Transporter radioligand binding (ligand: [125I] RTI-55); format: cell membranes, MDCK, Membrane; details: Not Active = under 50% inhibition at 10 µM
[4] = molecular target: Kappa-type opioid receptor (Homo sapiens, UniProt P41145); test: DRUGMATRIX: Opiate kappa (OP2, KOP) radioligand binding (ligand: [3H] Diprenorphine); format: cell membranes, HEK293, Membrane; details: Not Active = under 50% inhibition at 10 µM
[5] = DRUGMATRIX: Glutamate, Kainate radioligand binding (ligand: [3H] Kainic acid); format: cell membranes, Rattus norvegicus, Wistar, Brain, Membrane; details: Not Active = under 50% inhibition at 10 µM
[6] = molecular target: T3, C-X-C chemokine receptor type 2 (Homo sapiens, UniProt P25025); format: cell membranes, Membrane; details: cho-k1; also: in other assays of this panel Not Active means under 50% inhibition at 10 µM
T3 sequence (P25025 whole entry): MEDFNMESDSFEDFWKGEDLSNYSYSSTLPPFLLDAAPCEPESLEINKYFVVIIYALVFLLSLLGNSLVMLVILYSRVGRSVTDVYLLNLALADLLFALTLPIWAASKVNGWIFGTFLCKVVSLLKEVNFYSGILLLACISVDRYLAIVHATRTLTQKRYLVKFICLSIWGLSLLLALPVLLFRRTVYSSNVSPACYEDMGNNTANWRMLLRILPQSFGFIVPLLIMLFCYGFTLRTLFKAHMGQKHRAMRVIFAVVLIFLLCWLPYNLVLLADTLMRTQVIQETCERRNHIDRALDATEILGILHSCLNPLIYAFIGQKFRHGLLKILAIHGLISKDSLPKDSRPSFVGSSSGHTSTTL

Prostaglandin G/H synthase 1, sequence (P23219 whole entry): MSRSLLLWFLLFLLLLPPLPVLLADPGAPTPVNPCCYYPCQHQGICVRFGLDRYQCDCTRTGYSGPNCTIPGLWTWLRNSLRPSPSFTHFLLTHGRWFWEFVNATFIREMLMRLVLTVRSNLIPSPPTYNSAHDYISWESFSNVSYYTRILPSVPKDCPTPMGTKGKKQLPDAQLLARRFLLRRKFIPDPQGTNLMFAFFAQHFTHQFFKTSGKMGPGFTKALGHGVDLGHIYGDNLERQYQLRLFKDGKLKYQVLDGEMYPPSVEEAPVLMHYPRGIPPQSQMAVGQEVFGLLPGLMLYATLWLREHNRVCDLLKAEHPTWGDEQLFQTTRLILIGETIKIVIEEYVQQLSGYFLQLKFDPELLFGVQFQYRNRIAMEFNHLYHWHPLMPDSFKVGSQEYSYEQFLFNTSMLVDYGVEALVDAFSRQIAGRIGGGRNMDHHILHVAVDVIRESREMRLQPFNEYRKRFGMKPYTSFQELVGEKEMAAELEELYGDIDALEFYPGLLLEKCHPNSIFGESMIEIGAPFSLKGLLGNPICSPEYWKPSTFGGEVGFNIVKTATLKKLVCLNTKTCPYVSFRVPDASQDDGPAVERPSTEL
Kappa-type opioid receptor, sequence (P41145 whole entry): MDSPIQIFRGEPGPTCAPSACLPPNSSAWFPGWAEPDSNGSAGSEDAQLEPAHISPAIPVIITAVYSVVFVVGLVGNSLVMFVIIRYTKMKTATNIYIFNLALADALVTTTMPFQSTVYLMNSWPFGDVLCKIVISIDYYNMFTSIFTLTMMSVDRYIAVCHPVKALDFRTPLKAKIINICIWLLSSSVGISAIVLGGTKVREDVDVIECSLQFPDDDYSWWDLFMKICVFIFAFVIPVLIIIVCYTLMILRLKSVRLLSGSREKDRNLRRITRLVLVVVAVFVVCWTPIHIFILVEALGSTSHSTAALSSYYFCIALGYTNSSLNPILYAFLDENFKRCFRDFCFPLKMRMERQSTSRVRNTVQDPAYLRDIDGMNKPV
Sodium-dependent noradrenaline transporter, sequence (P23975 whole entry): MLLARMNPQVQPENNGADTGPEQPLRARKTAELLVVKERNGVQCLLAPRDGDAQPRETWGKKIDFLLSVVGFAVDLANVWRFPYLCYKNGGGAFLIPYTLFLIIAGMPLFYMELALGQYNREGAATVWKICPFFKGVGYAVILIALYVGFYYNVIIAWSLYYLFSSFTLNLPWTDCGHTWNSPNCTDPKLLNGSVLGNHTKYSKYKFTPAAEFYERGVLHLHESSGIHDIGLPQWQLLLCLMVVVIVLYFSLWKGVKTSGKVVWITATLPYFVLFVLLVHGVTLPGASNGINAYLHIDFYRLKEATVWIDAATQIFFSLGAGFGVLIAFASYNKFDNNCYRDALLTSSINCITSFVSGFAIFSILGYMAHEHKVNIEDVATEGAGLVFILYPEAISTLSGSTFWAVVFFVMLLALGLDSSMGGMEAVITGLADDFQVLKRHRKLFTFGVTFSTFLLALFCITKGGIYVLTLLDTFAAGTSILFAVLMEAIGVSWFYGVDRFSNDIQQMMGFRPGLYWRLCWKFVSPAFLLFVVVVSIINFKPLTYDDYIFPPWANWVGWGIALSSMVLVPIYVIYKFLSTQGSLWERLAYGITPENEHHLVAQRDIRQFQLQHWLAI

Compound	IC50 ([1]; platelet)	IC50 (Estrogen receptor)	IC50 [2]	Ki [2]	IC50 (B2 bradykinin receptor)	IC50 ([3]; mdck)	Ki [4]	IC50 ([4]; read-out: IC50)	IC50 [5]	Ki [5]	IC50 [6]	IC50 ([4]; hek293)	IC50 ([1]; read-out: IC50)	IC50 ([3]; read-out: IC50)	Ki ([3]; read-out: Ki)	Ki ([1]; platelet)	Ki (Estrogen receptor)	Ki (B2 bradykinin receptor)	Ki ([3]; mdck)	Ki [6]
CC(C)(C)NC(=O)[C@@H]1C[C@@H]2CCCC[C@@H]2CN1C[C@@H](O)[C@H](Cc1ccccc1)NC(=O)[C@H](CC(N)=O)NC(=O)c1ccc2ccccc2n1	Not Active	Not Active	Not Active	Not Active	Not Active	Not Active	2.78 µM	6.95 µM	Not Active	Not Active	Not Active	–	–	–	–	–	–	–	–	–
CC(=O)[C@@]1(O)CC[C@H]2[C@@H]3C[C@H](C)C4=CC(=O)CC[C@]4(C)[C@H]3CC[C@@]21C	Not Active	Not Active	Not Active	Not Active	Not Active	Not Active	–	–	Not Active	Not Active	Not Active	Not Active	–	–	–	–	–	–	–	–
N[C@@H](Cc1ccc(N(CCCl)CCCl)cc1)C(=O)O	Not Active	–	Not Active	Not Active	Not Active	Not Active	–	–	Not Active	Not Active	Not Active	–	–	–	–	–	–	–	–	–
CCCCc1oc2ccccc2c1C(=O)c1cc(I)c(OCCN(CC)CC)c(I)c1 [AMIODARONE]	Not Active	Not Active	–	–	–	–	–	–	–	–	Not Active	–	–	–	–	–	–	–	–	–
OCCN(CCO)c1nc(N2CCCCC2)c2nc(N(CCO)CCO)nc(N3CCCCC3)c2n1 [DIPYRIDAMOLE]	Not Active	Not Active	Not Active	Not Active	Not Active	Not Active	–	–	Not Active	Not Active	Not Active	Not Active	–	–	–	–	–	–	–	–
Cc1oncc1C(=O)Nc1ccc(C(F)(F)F)cc1 [LEFLUNOMIDE]	Not Active	Not Active	Not Active	Not Active	Not Active	–	–	–	Not Active	Not Active	Not Active	Not Active	–	–	–	–	–	–	–	–
c1ccc([C@H]2CN3CCSC3=N2)cc1 [LEVAMISOLE]	Not Active	Not Active	Not Active	Not Active	Not Active	Not Active	–	–	Not Active	Not Active	Not Active	Not Active	–	–	–	–	–	–	–	–
N[C@@H](Cc1ccc(O)c(O)c1)C(=O)O [LEVODOPA]	Not Active	–	Not Active	Not Active	Not Active	Not Active	–	–	Not Active	Not Active	Not Active	Not Active	–	–	–	–	–	–	–	–
N[C@@H](Cc1cc(I)c(Oc2ccc(O)c(I)c2)c(I)c1)C(=O)O [LIOTHYRONINE]	Not Active	Not Active	–	–	Not Active	Not Active	–	–	–	–	Not Active	Not Active	–	–	–	–	–	–	–	–
O=NN(CCCl)C(=O)NC1CCCCC1 [LOMUSTINE]	Not Active	–	Not Active	Not Active	Not Active	Not Active	–	–	Not Active	Not Active	Not Active	Not Active	–	–	–	–	–	–	–	–
CCOC(=O)N1CCC(=C2c3ccc(Cl)cc3CCc3cccnc32)CC1 [LORATADINE]	Not Active	Not Active	Not Active	Not Active	Not Active	Not Active	–	–	Not Active	Not Active	Not Active	Not Active	–	–	–	–	–	–	–	–
Cn1ccnc1S [METHIMAZOLE]	Not Active	Not Active	Not Active	Not Active	Not Active	Not Active	–	–	Not Active	Not Active	Not Active	Not Active	–	–	–	–	–	–	–	–
CC[C@@H](CO)NC(=O)[C@@H]1C=C2c3cccc4[nH]cc(c34)C[C@H]2N(C)C1 [METHYLERGONOVINE]	Not Active	Not Active	Not Active	Not Active	Not Active	Not Active	–	–	Not Active	Not Active	Not Active	–	–	–	–	–	–	–	–	–
COc1nc(C)nc(Cl)c1NC1=NCCN1 [MOXONIDINE]	Not Active	Not Active	Not Active	Not Active	Not Active	Not Active	–	–	Not Active	Not Active	Not Active	Not Active	–	–	–	–	–	–	–	–
COc1c(C)c2c(c(O)c1C/C=C(\C)CCC(=O)O)C(=O)OC2 [MYCOPHENOLIC ACID]	Not Active	Not Active	Not Active	Not Active	Not Active	Not Active	–	–	Not Active	Not Active	Not Active	Not Active	–	–	–	–	–	–	–	–
CN1CCN(CCCN2c3ccccc3Sc3ccc(Cl)cc32)CC1 [PROCHLORPERAZINE]	Not Active	Not Active	–	–	Not Active	–	–	–	–	–	Not Active	Not Active	–	–	–	–	–	–	–	–
CO[C@H]1/C=C/O[C@@]2(C)Oc3c(C)c(O)c4c(O)c(c(/C=N/N5CCN(C)CC5)c(O)c4c3C2=O)NC(=O)/C(C)=C\C=C\[C@H](C)[C@H](O)[C@@H](C)[C@@H](O)[C@@H](C)[C@H](OC(C)=O)[C@@H]1C [RIFAMPIN]	Not Active	–	Not Active	Not Active	Not Active	Not Active	–	–	Not Active	Not Active	Not Active	Not Active	–	–	–	–	–	–	–	–
Cc1nc2n(c(=O)c1CCN1CCC(c3noc4cc(F)ccc34)CC1)CCCC2 [RISPERIDONE]	Not Active	Not Active	–	–	Not Active	Not Active	–	–	–	–	Not Active	Not Active	–	–	–	–	–	–	–	–
CSc1ccc(/C=C2/C(C)=C(CC(=O)O)c3cc(F)ccc32)cc1 [SULINDAC SULFIDE]	–	Not Active	Not Active	Not Active	Not Active	Not Active	–	–	Not Active	Not Active	Not Active	Not Active	–	–	–	–	–	–	–	–
CC/C(=C(\c1ccccc1)c1ccc(OCCN(C)C)cc1)c1ccccc1 [TAMOXIFEN]	–	–	–	–	–	–	6.25 µM	–	–	–	Not Active	–	4.39 µM	1.47 µM	1.46 µM	–	–	–	–	–
CC(C)N1CCN(c2ccc(OCC3COC(Cn4cncn4)(c4ccc(Cl)cc4Cl)O3)cc2)CC1 (centres undefined) [TERCONAZOLE]	Not Active	Not Active	Not Active	Not Active	Not Active	–	–	–	Not Active	Not Active	Not Active	Not Active	–	–	–	–	–	–	–	–
CC1(C)O[C@@H]2C[C@H]3[C@@H]4CCC5=CC(=O)C=C[C@]5(C)[C@@]4(F)[C@@H](O)C[C@]3(C)[C@]2(C(=O)CO)O1 [TRIAMCINOLONE ACETONIDE]	Not Active	–	Not Active	Not Active	Not Active	Not Active	–	–	Not Active	Not Active	Not Active	Not Active	–	–	–	–	–	–	–	–
NS(=O)(=O)c1cc2c(cc1Cl)NC(C(Cl)Cl)NS2(=O)=O (centres undefined) [TRICHLORMETHIAZIDE]	Not Active	–	Not Active	Not Active	Not Active	Not Active	–	–	Not Active	Not Active	Not Active	Not Active	–	–	–	–	–	–	–	–
SODIUM NITROPRUSSIDE	Not Active	Not Active	Not Active	Not Active	Not Active	Not Active	–	–	Not Active	Not Active	Not Active	–	–	–	–	Not Active	Not Active	Not Active	Not Active	Not Active

Source: ChEMBL document CHEMBL1909046, “DrugMatrix in vitro pharmacology data”
